According to patent publication US9434697B2, “Pyrimidine FGFR4 inhibitors” (priority 2013, dated 2016):
Like-named read-outs stand apart in the source and are kept apart here.

What was measured:
[1] = test system: HEP3B tumor xenografts; type: in vivo
[2] = target: Recombinant FGFR4 (Homo sapiens (Human), UniProt P22455); experiment: Kinase HotSpot assay, IC50 profiling of kinase activity inhibition (FGFR4); type: biochemical; conditions: Table 1; 10 μM ATP
[3] = target: Recombinant FGFR1 (Homo sapiens (Human), UniProt P11362); experiment: Kinase HotSpot assay, IC50 profiling of kinase activity inhibition (FGFR1); type: biochemical; conditions: Table 1; 10 μM ATP
Recombinant FGFR1, sequence (P11362 22-822): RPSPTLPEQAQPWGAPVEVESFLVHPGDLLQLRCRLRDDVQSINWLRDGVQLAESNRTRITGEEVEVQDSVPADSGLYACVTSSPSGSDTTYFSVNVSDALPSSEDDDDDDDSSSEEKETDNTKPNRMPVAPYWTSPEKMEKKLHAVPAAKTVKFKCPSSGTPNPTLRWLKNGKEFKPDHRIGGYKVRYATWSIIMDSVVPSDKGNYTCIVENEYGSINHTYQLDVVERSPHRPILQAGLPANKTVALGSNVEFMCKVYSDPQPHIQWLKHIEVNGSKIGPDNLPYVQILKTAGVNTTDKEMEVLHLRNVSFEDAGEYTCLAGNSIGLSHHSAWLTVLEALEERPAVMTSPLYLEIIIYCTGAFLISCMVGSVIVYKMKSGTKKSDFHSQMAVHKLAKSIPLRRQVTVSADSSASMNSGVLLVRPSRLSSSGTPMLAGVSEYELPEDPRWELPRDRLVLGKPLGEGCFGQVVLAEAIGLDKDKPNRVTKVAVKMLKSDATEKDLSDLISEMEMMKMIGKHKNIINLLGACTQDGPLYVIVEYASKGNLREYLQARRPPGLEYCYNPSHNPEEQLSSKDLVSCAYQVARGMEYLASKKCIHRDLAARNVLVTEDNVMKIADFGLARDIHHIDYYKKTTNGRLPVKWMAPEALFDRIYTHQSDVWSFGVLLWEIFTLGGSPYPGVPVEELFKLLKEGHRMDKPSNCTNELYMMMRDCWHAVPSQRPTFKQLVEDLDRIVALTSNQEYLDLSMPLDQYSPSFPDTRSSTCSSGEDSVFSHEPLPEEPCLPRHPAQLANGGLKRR

Recombinant FGFR4, sequence (P22455 22-802): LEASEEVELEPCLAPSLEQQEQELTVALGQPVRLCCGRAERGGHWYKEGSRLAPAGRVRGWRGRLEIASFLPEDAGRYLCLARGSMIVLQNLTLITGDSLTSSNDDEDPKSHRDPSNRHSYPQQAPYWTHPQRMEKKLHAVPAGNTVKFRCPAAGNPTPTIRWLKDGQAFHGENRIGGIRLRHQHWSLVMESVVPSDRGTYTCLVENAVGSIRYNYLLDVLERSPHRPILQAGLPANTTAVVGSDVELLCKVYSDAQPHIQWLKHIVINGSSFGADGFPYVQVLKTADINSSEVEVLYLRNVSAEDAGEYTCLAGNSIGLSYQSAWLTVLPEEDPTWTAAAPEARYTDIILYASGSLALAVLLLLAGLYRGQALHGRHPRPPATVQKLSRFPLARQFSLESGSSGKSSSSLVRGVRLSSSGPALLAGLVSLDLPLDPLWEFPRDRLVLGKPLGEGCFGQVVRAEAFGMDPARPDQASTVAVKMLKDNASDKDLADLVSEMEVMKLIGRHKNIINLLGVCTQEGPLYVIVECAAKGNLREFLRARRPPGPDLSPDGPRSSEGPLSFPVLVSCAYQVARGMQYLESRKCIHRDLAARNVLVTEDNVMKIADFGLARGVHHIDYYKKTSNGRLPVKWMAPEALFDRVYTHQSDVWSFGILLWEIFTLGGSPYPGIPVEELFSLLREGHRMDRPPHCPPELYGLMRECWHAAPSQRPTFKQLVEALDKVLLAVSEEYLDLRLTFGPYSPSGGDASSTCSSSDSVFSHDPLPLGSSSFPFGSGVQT

Compound: CCN1CCN(c2ccc(Nc3cc(N(C)C(=O)Nc4c(Cl)c(OC)cc(OC)c4Cl)ncn3)cc2)CC1 [BGJ398]
- tolerability (health of animals) ([1]; 30 mg/kg orally twice daily): did not exhibit poor health
- comparative in vivo efficacy (tumor volume) ([1]; 60 mg/kg orally twice daily): efficacy comparable to compound 108
- tolerability (health of animals) ([1]; 60 mg/kg orally twice daily): terminated on Day 11 due to poor health of animals

Compound: C=CC(=O)Nc1ccccc1Nc1cc(N(C)C(=O)Nc2cc(OC)cc(OC)c2)ncn1 [Example 102]
- IC50 [2]: 853 nM
- IC50 [3]: > 10000 nM

Compound: C=CC(=O)Nc1cc(N2CCN(CC)CC2)ccc1Nc1cc(N(C)C(=O)Nc2c(Cl)c(OC)cc(OC)c2Cl)ncn1 [Example 108, N-(2-(6-(3-(2,6-Dichloro-3,5-dimethoxyphenyl)-1-methylureido)pyrimidin-4-ylamino)-5-(4-ethylpiperazin-1-yl)phenyl)acrylamide]
- comparative in vivo efficacy (tumor volume) ([1]; 25, 37.5 or 50 mg/kg i.p. twice daily, 18 days): more efficacious than BGJ398 at tolerable dosage levels
